Patent publication US20090018194A1, “Use of antimicrobial agents derived from alliaceous plants for the prevention and control of crop diseases, post-harvest rot and as environmental disinifectant products” (DMC Research Center, S.L., priority 2007, published 2009)

Legend:
[1] = test system: Micrococcus luteus ATCC 15307; assay: agar diffusion test with impregnated cellulose discs; type: cell-based; conditions: incl. 6 mm disc
[2] = test system: Bacillus megaterium ATCC 33085; assay: as above; type: cell-based; conditions: incl. 6 mm disc
[3] = test system: Listeria monocytogenes CECT 4032; assay: as above; type: cell-based; conditions: incl. 6 mm disc
[4] = test system: Candida magnoliae DSMZ 70638; assay: as above; type: cell-based; conditions: incl. 6 mm disc
[5] = test system: Saccharomyces cerevisiae CECT 1324; assay: as above; type: cell-based; conditions: incl. 6 mm disc
[6] = test system: Penicillium italicum CECT 2294; assay: as above; type: cell-based; conditions: incl. 6 mm disc
[7] = test system: Aspergillus terreus CECT 2663; assay: as above; type: cell-based; conditions: incl. 6 mm disc
[8] = test system: Aspergillus niger CECT 2700; assay: as above; type: cell-based; conditions: incl. 6 mm disc
[9] = test system: Phytophthora citrophthora CECT 2353; assay: agar diffusion test, wild phytopathogens isolated from citrus rot; type: cell-based; conditions: incl. 6 mm disc
Botrytis cinerea = assay: post-harvest rotting of inoculated pears, drencher treatment; type: in vivo; conditions: 15 days of refrigeration at 5-6° C.
Protocol: (§1) The effectiveness of the active principle PTS (in various individual doses) was studied in the control of post-harvest rotting of pears and apples caused by the fungi Botrytis cinerea and Penicillium expansum, the principal agents of diseases in these fruits. These phytopathogens can appear in fruit being stored in a cold room and, once in the processing plant and in a later phase, form colonies and are transferred from one fruit to another by contact. The study was performed by means of a controlled inoculation test to ensure a high percentage of affected fruits, and to guarantee that this level of infection is with certainty caused by these pathogens, thereby making it possible to detect and evaluate significant differences between the different treatments. […] To perform the controlled inoculation, wild strains of Botrytris cinerea and Penicillium expansum were used which were isolated in fruit and vegetable processing plants. […] After the time indicated above had passed, the various post-harvest treatments were carried out by means of […] 25° C. for 60 seconds.

Penicillium expansum = assay: as above; type: in vivo; conditions: 15 days of refrigeration at 5-6° C.
Protocol: as §1

`CCCS[S+]([O-])CCC` (stereo not shown) [PTS, Propyl Propyl Thiosulfinate] was tested, and the “diameter of the microbial inhibition halo” value ([1]; 25 ppm) was 19 mm, the “diameter of the microbial inhibition halo” value ([1]; 50 ppm) was 25 mm and the “diameter of the microbial inhibition halo” value ([1]; 100 ppm) was 32 mm. For the same compound, the “diameter of the microbial inhibition halo” value ([2]; 25 ppm) was 23 mm, the “diameter of the microbial inhibition halo” value ([2]; 50 ppm) was 27 mm and the “diameter of the microbial inhibition halo” value ([2]; 100 ppm) was 34 mm. The “diameter of the microbial inhibition halo” value ([3]; 25 ppm) was 18 mm, the “diameter of the microbial inhibition halo” value ([3]; 50 ppm) was 24 mm and the “diameter of the microbial inhibition halo” value ([3]; 100 ppm) was 30 mm. The “diameter of the microbial inhibition halo” value ([4]; 25 ppm) was 22 mm, the “diameter of the microbial inhibition halo” value ([4]; 50 ppm) was 30 mm and the “diameter of the microbial inhibition halo” value ([4]; 100 ppm) was 38 mm. The “diameter of the microbial inhibition halo” value ([5]; 25 ppm) was 28 mm, the “diameter of the microbial inhibition halo” value ([5]; 50 ppm) was 32 mm and the “diameter of the microbial inhibition halo” value ([5]; 100 ppm) was 44 mm. The “diameter of the microbial inhibition halo” value ([6]; 25 ppm) was 22 mm, the “diameter of the microbial inhibition halo” value ([6]; 50 ppm) was 26 mm and the “diameter of the microbial inhibition halo” value ([6]; 100 ppm) was 34 mm. The “diameter of the microbial inhibition halo” value ([7]; 25 ppm) was 12 mm, the “diameter of the microbial inhibition halo” value ([7]; 50 ppm) was 22 mm and the “diameter of the microbial inhibition halo” value ([7]; 100 ppm) was 25 mm. For the same compound, the “diameter of the microbial inhibition halo” value ([8]; 25 ppm) was 10 mm, the “diameter of the microbial inhibition halo” value ([8]; 50 ppm) was 13 mm and the “diameter of the microbial inhibition halo” value ([8]; 100 ppm) was 19 mm. The “diameter of the microbial inhibition halo” value ([9]; 30 ppm) was 10 mm, the “diameter of the microbial inhibition halo” value ([9]; 60 ppm) was 21 mm and the “diameter of the microbial inhibition halo” value ([9]; 125 ppm) was 23 mm. The “diameter of the microbial inhibition halo” value ([9]; 250 ppm) was 42 mm, the “diameter of the microbial inhibition halo” value ([9]; 500 ppm) was 53 mm and the “diameter of the microbial inhibition halo” value ([9]; 1000 ppm) was 55 mm. The “% of fruit affected” value (Botrytis cinerea; Decana, 500 ppm) was 0%, the “% of fruit affected” value (Botrytis cinerea; Decana, 666 ppm) was 0% and the “% of fruit affected” value (Botrytis cinerea; Decana, 833 ppm) was 1%. For the same compound, the “% of fruit affected” value (Botrytis cinerea; Decana, 1666 ppm) was 0.5%, the “% of fruit affected” value (Botrytis cinerea; Flor de invierno, 500 ppm) was 3.5% and the “% of fruit affected” value (Botrytis cinerea; Flor de invierno, 666 ppm) was 0.4%. The “% of fruit affected” value (Botrytis cinerea; Flor de invierno, 833 ppm) was 3.7%, the “% of fruit affected” value (Botrytis cinerea; Flor de invierno, 1666 ppm) was 3% and the “% of fruit affected” value (Penicillium expansum; Decana, 500 ppm) was 0%. For the same compound, the “% of fruit affected” value (Penicillium expansum; Decana, 666 ppm) was 2%, the “% of fruit affected” value (Penicillium expansum; Decana, 833 ppm) was 0% and the “% of fruit affected” value (Penicillium expansum; Decana, 1666 ppm) was 3%. The “% of fruit affected” value (Penicillium expansum; Flor de invierno, 500 ppm) was 3.6%, the “% of fruit affected” value (Penicillium expansum; Flor de invierno, 666 ppm) was 2.2% and the “% of fruit affected” value (Penicillium expansum; Flor de invierno, 833 ppm) was 2.4%. The “% of fruit affected” value (Penicillium expansum; Flor de invierno, 1666 ppm) was 5.3%.
